Measured values as given in patent EP0405997B1, “Antibiotic agent” (Merck & Co., Inc., priority 1989, dated 1991).
Converted amounts (≈) assume the structure as drawn. Like-named read-outs stand apart in the source and are kept apart here. Numbered stars: 1 amine (or outer) side, 2 acyl side, 3 side chain; on linkers, the order of the positions; unused ones are H or OH. Bridge positions count the residues as written; N and C are the ends. Square brackets hold non-standard residues; d marks the D form. Peptide text beside a SMILES is read from it. * marks the point of attachment. Orn(4R-OH,5R-OH) = O=C([C@H](C[C@@H](O)[C@@H](O)N[*:3])N[*:1])[*:2]; Tetradecanoyl(10R,12S-Me2) = CC[C@H](C)C[C@H](C)CCCCCCCCC(=O)*; hTyr(3S-OH,4S-OH) = N[C@H](C(=O)O)[C@H](O)[C@@H](O)c1ccc(O)cc1; Gln(3R-OH) = NC(=O)C[C@@H](O)[C@H](N)C(=O)O; Pro(3S-OH) = O=C(O)[C@H]1NCC[C@@H]1O; Hyp = O=C(O)[C@@H]1C[C@@H](O)CN1

Columns and labels:
Pneumocystis carinii = settings: dexamethasone-immunosuppressed male C3H/Hej mice; 0.5 mg/kg intraperitoneally twice daily for two weeks; lung tissue
Protocol: In a representative study ten male C3H/Hej mice, weighing 22-24 gms. each, were immunosuppressed by the addition of dexamethasone to the drinking water (8.0 mg/L) for six weeks to induce the development of P. carinii infections. To enhance the infection the mice were also maintained on a low protein diet. At the beginning of the seventh week the mice were divided into two groups. Both groups continued to receive dexamethasone in the drinking water and low protein diet for the remainder of the study. Mice in Group I were injected intraperitoneally twice daily with 0.5 ml of a 20% DMSO solution as a vehicle control. […] The treatment period lasted two weeks.
At the end of the treatment period (a total of eight weeks immunosuppression) the animals were sacrificed and the lung tissues removed. The tissue was then processed to determine the number of cysts for each animal.

[1] = Solubility in organic solvents; format: physicochemical; settings: methanol, ethanol, dimethylformamide, dimethyl sulfoxide, ethyl acetate and the like
Candida parapsilosis = test: microbe, parasite or virus in culture
Protocol: (§1) In carrying out the assay, Compound I was solubilized in 10 percent dimethyl sulfoxide (DMSO) and diluted to 2560 µg/ml. The compounds were further diluted to 256 µg/ml in YNBD. Then 0.15 ml of the suspension was dispensed to the first row of a 96-well plate (each well containing 0.15 ml of YNDB) resulting in a drug concentration of 128 µg/ml. Two-fold dilutions were then made to obtain final drug concentrations ranging from 128 to 0.06 µg/ml.
(§2) The yeast cultures, maintained on Sabouraud dextrose agar were transferred to YM broth (Difco) and incubated overnight at 35°C with shaking (250 rpm). After incubation, each culture was diluted in sterile water to yield a final concentration of 1-5 x 10⁶ colony forming units (CFU)/ml.
(§3) 96-well microplates were inoculated using a MIC-2000 (Dynotech) which delivers 1.5 µl per well yielding a final inoculum per well of 1.5-7.5 x 10³ cells. The microplates were incubated at 35°C for 24 hours. The minimum inhibitory concentrations (MICs) were recorded as the lowest concentrations of drug showing no visible growth.
(§4) After recording the MIC, the plates were shaken to resuspend the cells. Thereafter, 1.5 µl samples from the wells in the 96-well microplate were transferred to a single well tray containing Sabouraud dextrose agar. The inoculated trays were incubated 24 hours at 28°C and then read. The MFC is defined as the lowest concentration of drug showing no growth or less than 4 colonies per spot.

Candida albicans = test: microbe, parasite or virus in culture
Protocol: as §1, §2, §3, §4

Candida tropicalis = test: microbe, parasite or virus in culture; settings: read-out: Minimum Fungicidal Concentration
Protocol: as §1, §2, §3, §4

In the case of `CC[C@H](C)C[C@H](C)CCCCCCCCC(=O)N[C@H]1C[C@@H](O)[C@@H](O)NC(=O)[C@@H]2[C@@H](O)CCN2C(=O)[C@H]([C@H](O)CC(N)=O)NC(=O)[C@H]([C@H](O)[C@@H](O)c2ccc(O)cc2)NC(=O)[C@@H]2C[C@@H](O)CN2C(=O)[C@H]([C@@H](C)O)NC1=O` [Compound I, 1-[4,5-dihydroxy-N²-(10,12-dimethyl-1-oxotetradecyl)-ornithine]-5-(3-hydroxyglutamine)-6-(3-hydroxyproline)echinocandin B] ({Tetradecanoyl(10R,12S-Me2)}-[Orn(4R-OH,5R-OH)]T[Hyp][hTyr(3S-OH,4S-OH)][Gln(3R-OH)][Pro(3S-OH)]; lactam 1-C), the “reduced the number of cysts as compared to the control animals” value (Pneumocystis carinii) is reported as 81%, the solubility [1] is reported as “soluble in organic solvents” and the “Minimum Fungicidal Concentration” value (Candida parapsilosis; Candida parapsilosis MY 1010, YNBD medium) is reported as 8.0 µg/mL. For the same compound, the MFC (Candida parapsilosis; Lodderomyces parapsilosis, read-out: Minimum Fungicidal Concentration) was 8 µg/mL (≈ 7.51 µM), the MFC (Candida albicans; read-out: Minimum Fungicidal Concentration, Candida albicans MY 1028, YNBD medium) was 1 µg/mL (≈ 0.939 µM) and the MFC (Candida albicans; read-out: Minimum Fungicidal Concentration, Candida albicans MY 1208, YNBD medium) was 0.5 µg/mL (≈ 0.469 µM). The MFC (Candida albicans; read-out: Minimum Fungicidal Concentration, Candida albicans MY 1585, YNBD medium) was 0.5 µg/mL (≈ 0.469 µM), the MFC (Candida albicans; read-out: Minimum Fungicidal Concentration, Candida albicans MY 1750, YNBD medium) was 0.25 µg/mL (≈ 0.235 µM) and the MFC (Candida albicans; read-out: Minimum Fungicidal Concentration, Candida albicans MY 1783, YNBD medium) was 0.5 µg/mL (≈ 0.469 µM). The MFC (Candida tropicalis) was 2 µg/mL (≈ 1.88 µM).
